The values below come from article PMC12645469 (Nature structural & molecular biology, 2024).

Data set [1] has as its target T1, NaDC3 (Homo sapiens, UniProt Q8WWT9).
T1 sequence (Q8WWT9 1-602): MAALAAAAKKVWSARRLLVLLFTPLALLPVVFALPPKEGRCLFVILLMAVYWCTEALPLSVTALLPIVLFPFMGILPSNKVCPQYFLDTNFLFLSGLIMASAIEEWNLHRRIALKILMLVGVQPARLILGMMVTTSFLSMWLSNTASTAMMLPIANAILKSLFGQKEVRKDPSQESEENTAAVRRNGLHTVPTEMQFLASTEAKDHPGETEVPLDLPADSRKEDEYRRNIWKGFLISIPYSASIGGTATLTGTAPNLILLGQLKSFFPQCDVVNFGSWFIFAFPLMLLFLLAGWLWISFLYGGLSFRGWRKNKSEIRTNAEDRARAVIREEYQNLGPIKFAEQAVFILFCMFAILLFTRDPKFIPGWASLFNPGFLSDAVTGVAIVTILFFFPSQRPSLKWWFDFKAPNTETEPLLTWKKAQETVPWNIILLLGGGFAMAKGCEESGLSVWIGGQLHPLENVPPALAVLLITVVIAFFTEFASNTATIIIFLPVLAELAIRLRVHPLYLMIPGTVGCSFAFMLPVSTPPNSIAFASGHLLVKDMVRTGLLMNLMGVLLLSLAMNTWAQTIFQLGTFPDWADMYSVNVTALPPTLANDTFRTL
The data set is described as follows: intrinsic tryptophan fluorescence quenching. It counts as binding.

Data set [2] deals with T1, NaDC3. The data set is described as follows: cryo-EM structure. It counts as cell-based.
In data set [3] the target is T1, NaDC3. The data set is described as follows: biochemical.
Data set [4] addresses NaDC3 (Homo sapiens, UniProt Q8WWT9, F93Y).
Data set [5] deals with the molecule itself. The data set is described as follows: cryo-EM structure.

NaDC3 (Homo sapiens, UniProt Q8WWT9, F93Y), sequence (Q8WWT9 whole entry F93Y): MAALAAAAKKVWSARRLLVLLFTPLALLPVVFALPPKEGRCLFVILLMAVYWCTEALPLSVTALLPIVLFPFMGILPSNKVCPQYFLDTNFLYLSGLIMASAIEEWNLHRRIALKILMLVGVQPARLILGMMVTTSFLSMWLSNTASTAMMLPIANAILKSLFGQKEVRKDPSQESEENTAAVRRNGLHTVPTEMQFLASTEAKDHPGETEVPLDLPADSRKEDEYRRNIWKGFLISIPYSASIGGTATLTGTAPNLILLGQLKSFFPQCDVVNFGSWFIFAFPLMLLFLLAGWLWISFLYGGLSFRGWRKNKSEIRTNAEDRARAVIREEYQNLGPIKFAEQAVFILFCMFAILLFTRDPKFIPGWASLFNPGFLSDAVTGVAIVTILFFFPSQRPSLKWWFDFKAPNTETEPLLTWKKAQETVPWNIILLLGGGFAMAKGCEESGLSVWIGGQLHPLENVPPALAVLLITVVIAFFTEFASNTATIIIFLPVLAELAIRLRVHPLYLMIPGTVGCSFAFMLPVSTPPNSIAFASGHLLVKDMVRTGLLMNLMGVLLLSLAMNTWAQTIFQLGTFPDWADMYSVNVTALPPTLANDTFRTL

For the molecule `CC(C(=O)O)C(C)C(=O)O` (centres unmarked) [DMS, 2,3-dimethylsuccinate], in data set [1], binding was put at a Kd of 10.2 ± 5.6 µM.
For the molecule `COc1ncc(C)cc1CC[C@@](O)(CC(=O)O)C(=O)O` [PF4a, PF-06761281], inhibition in data set [2] was half-maximal at 39.2 µM (IC50).
Regarding `O=C(O)CCC(=O)O` [Succ, succinate], the Kd (commonly the constant that tells how readily two partners part at equilibrium) in data set [3] came to 17.6 ± 9.8 µM. In addition, the Michaelis constant (Km) (as a rule, the substrate concentration at which the rate is half of its maximum) in data set [4] was found to be 10.5 ± 5.9 µM.

B1: human high affinity sodium-dicarboxylate cotransporter NaDC3 (natural protein)
chain: T1 sequence (Q8WWT9 1-602)
For B1, in data set [5], the stoichiometry N (as a rule, a count of units in the complex or per binding partner) was 2.
